The assay addresses T1, PDE5A1 (human PDE5 from platelets) (Homo sapiens, UniProt O76074).
T1 construct: from tissue; host or cells: platelets from fresh blood of human donors (10,000 g supernatant of sonified platelets)
In words: Inhibition of type 5 phosphodiesterase (PDE5) activity, modified SPA test. It is filed as biochemical. The note with it: PDE5-containing human platelet lysate, 0.5 μM cGMP, value classes, read-out: PDE5A1 inhibitory values [measured as −logIC50 (mol/l)] (converted). In outline: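 Enzyme source: human platelet lysate (10,000 g supernatant), with 1 μM motapizone and 10 nM PDE2 inhibitor present. SPA format in 20 mM Tris pH 7.4, 5 mM Mg2+, 0.5 μM cGMP with [3H]cGMP tracer; 5 min preincubation at 37 °C, 15 min reaction, stopped with IBMX-containing beads. IC50 by non-linear regression.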
Regarding `Cc1ccc(OCC2CC2)c(-c2ccnc3c(C(=O)NC4CCN(C(=O)CO)CC4)c(C)[nH]c23)c1` [Example F34, 7-[2-(Cyclopropylmethoxy)-5-methylphenyl]-N-[1-(hydroxyacetyl)piperidin-4-yl]-2-methyl-1H-pyrrolo[3,2-b]pyridine-3-carboxamide], the IC50 is 1 to 10 nM.

`COc1cc(-c2ccnc3c(C(=O)N[C@H]4CC[C@H](NC(C)=O)CC4)c(C)[nH]c23)c(OCC2CC2)cc1F` [Example E64, N-[trans-4-(Acetylamino)cyclohexyl]-7-[2-(cyclopropylmethoxy)-4-fluoro-5-methoxyphenyl]-2-methyl-1H-pyrrolo[3,2-b]pyridine-3-carboxamide]: the IC50 was < 1 nM.

Consider `COc1cc(-c2ccnc3c(C(=O)N[C@H]4CC[C@@H](NC(C)=O)CC4)c(C)[nH]c23)c(OCC2CC2)cc1F` [Example E67, N-[cis-4-(Acetylamino)cyclohexyl]-7-[2-(cyclopropylmethoxy)-4-fluoro-5-methoxyphenyl]-2-methyl-1H-pyrrolo[3,2-b]pyridine-3-carboxamide], for which the IC50 is < 1 nM.

For `COc1ccc(OCC2CC2)c(-c2ccnc3c(C(=O)N[C@@H]4CN(C(C)=O)C[C@H]4O)c(C)[nH]c23)c1` (relative stereo) [Example E49, N-[(3R*,4R*)-1-Acetyl-4-hydroxypyrrolidin-3-yl]-7-[2-(cyclopropylmethoxy)-5-methoxyphenyl]-2-methyl-1H-pyrrolo[3,2-b]pyridine-3-carboxamide], the IC50 is 1 to 10 nM. With `COCC(=O)N[C@H]1CC[C@@H](NC(=O)c2c(C)[nH]c3c(-c4cc(OC)ccc4OCC4CC4)ccnc23)CC1` [Example E48, 7-[2-(Cyclopropylmethoxy)-5-methoxyphenyl]-N-{cis-4-[(methoxyacetyl)amino]cyclohexyl}-2-methyl-1H-pyrrolo[3,2-b]pyridine-3-carboxamide], the IC50 is 1 to 10 nM. The value for `Cc1ccc(OCC2CC2)c(-c2ccnc3c(C(=O)NC4CCN(C(=O)[C@H](C)O)CC4)c(C)[nH]c23)c1` [Example F35, 7-[2-(cyclopropylmethoxy)-5-methylphenyl]-N-{1-[abs.(2S)-2-hydroxypropanoyl]piperidin-4-yl}-2-methyl-1H-pyrrolo[3,2-b]pyridine-3-carboxamide] was 1 to 10 nM. The value for `CCC(=O)N1C[C@@H](O)[C@H](NC(=O)c2c(C)[nH]c3c(-c4cc(OC)ccc4OCC4CC4)ccnc23)C1` (relative stereo) [Example E50, 7-[2-(Cyclopropylmethoxy)-5-methoxyphenyl]-N-[(3R*,4R*)-4-hydroxy-1-propanoylpyrrolidin-3-yl]-2-methyl-1H-pyrrolo[3,2-b]pyridine-3-carboxamide] was 1 to 10 nM.

Regarding `Cc1[nH]c2c(-c3c(OCC4CC4)ccc4c3OCO4)ccnc2c1C(=O)N[C@H]1CC[C@@H](NC(=O)CO)CC1` [Example F04, 7-[5-(Cyclopropylmethoxy)-1,3-benzodioxol-4-yl]-N-[cis-4-(glycoloylamino)cyclohexyl]-2-methyl-1H-pyrrolo[3,2-b]pyridine-3-carboxamide], the IC50 is < 1 nM. As for `COc1ccc(OCC2CC2)c(-c2ccnc3c(C(=O)NC4CCN(C(=O)CO)CC4)c(C)[nH]c23)c1` [Example F26, 7-[2-(Cyclopropylmethoxy)-5-methoxyphenyl]-N-[1-(hydroxyacetyl)piperidin-4-yl]-2-methyl-1H-pyrrolo[3,2-b]pyridine-3-carboxamide], the IC50 was 1 to 10 nM. Under `Cc1[nH]c2c(-c3ccc(F)cc3OCC3CC3)ccnc2c1C(=O)N[C@H]1CC[C@@H](NC(=O)CO)CC1` [Example F10, 7-[2-(Cyclopropylmethoxy)-4-fluorophenyl]-N-{cis-4-[(hydroxyacetyl)amino]cyclohexyl}-2-methyl-1H-pyrrolo[3,2-b]pyridine-3-carboxamide] stands 1 to 10 nM; under `CCC(=O)N1CCC(NC(=O)c2c(C)[nH]c3c(-c4cc(C)ccc4OCC4CC4)ccnc23)CC1` [Example E53, 7-[2-(Cyclopropylmethoxy)-5-methylphenyl]-2-methyl-N-(1-propanoylpiperidin-4-yl)-1H-pyrrolo[3,2-b]pyridine-3-carboxamide], 1 to 10 nM.

For `COCC(=O)N[C@H]1CC[C@H](NC(=O)c2c(C)[nH]c3c(-c4ccc(F)cc4OCC4CC4)ccnc23)CC1` [Example E15, 7-[2-(Cyclopropylmethoxy)-4-fluorophenyl]-N-{trans-4-[(methoxyacetyl)amino]cyclohexyl}-2-methyl-1H-pyrrolo[3,2-b]pyridine-3-carboxamide], the IC50 was < 1 nM. For `COc1ccc(OCC2CC2)c(-c2ccnc3c(C(=O)NC4CCN(C(C)=O)CC4)c(C)[nH]c23)c1` [Example E40, N-(1-Acetylpiperidin-4-yl)-7-[2-(cyclopropylmethoxy)-5-methoxyphenyl]-2-methyl-1H-pyrrolo[3,2-b]pyridine-3-carboxamide], the IC50 is < 1 nM. The value for `COc1cc(-c2ccnc3c(C(=O)NC4CCN(C(C)=O)CC4)c(C)[nH]c23)c(OCC2CC2)cc1F` [Example E61, N-(1-Acetylpiperidin-4-yl)-7-[2-(cyclopropylmethoxy)-4-fluoro-5-methoxyphenyl]-2-methyl-1H-pyrrolo[3,2-b]pyridine-3-carboxamide] was < 1 nM; that for `CC(=O)N[C@H]1CC[C@H](NC(=O)c2c(C)[nH]c3c(-c4cc(C)ccc4OCC4CC4)ccnc23)CC1` [Example E55, N-[trans-4-(Acetylamino)cyclohexyl]-7-[2-(cyclopropylmethoxy)-5-methylphenyl]-2-methyl-1H-pyrrolo[3,2-b]pyridine-3-carboxamide] was 1 to 10 nM; that for `COCC(=O)N[C@H]1CC[C@H](NC(=O)c2c(C)[nH]c3c(-c4cc(OC)c(F)cc4OCC4CC4)ccnc23)CC1` [Example E66, 7-[2-(Cyclopropylmethoxy)-4-fluoro-5-methoxyphenyl]-N-{trans-4-[(methoxyacetyl)amino]cyclohexyl}-2-methyl-1H-pyrrolo[3,2-b]pyridine-3-carboxamide] was < 1 nM. In the case of `COc1cc(-c2ccnc3c(C(=O)N[C@@H]4CN(C(=O)CO)C[C@H]4O)c(C)[nH]c23)c(OCC2CC2)cc1F` (relative stereo) [Example F46, 7-[2-(Cyclopropylmethoxy)-4-fluoro-5-methoxyphenyl]-N-[(3R*,4R*)-4-hydroxy-1-(hydroxyacetyl)pyrrolidin-3-yl]-2-methyl-1H-pyrrolo[3,2-b]pyridine-3-carboxamide], the IC50 was < 1 nM.

Take `COc1ccc(OCC2CC2)c(-c2ccnc3c(C(=O)N[C@@H]4CN(C(=O)CO)C[C@H]4O)c(C)[nH]c23)c1` (relative stereo) [Example F32, 7-[2-(Cyclopropylmethoxy)-5-methoxyphenyl]-N-[(3R*,4R*)-4-hydroxy-1-(hydroxyacetyl)pyrrolidin-3-yl]-2-methyl-1H-pyrrolo[3,2-b]pyridine-3-carboxamide]: the IC50 was 1 to 10 nM. As for `CC(=O)N1CC[C@@H](NC(=O)c2c(C)[nH]c3c(-c4cc(F)ccc4OCC4CC4)ccnc23)[C@H](O)C1` (relative stereo) [Example E28, N-[(3R*,4R*)-1-Acetyl-3-hydroxypiperidin-4-yl]-7-[2-(cyclopropylmethoxy)-5-fluorophenyl]-2-methyl-1H-pyrrolo[3,2-b]pyridine-3-carboxamide], the IC50 is 1 to 10 nM.

In the case of `COc1cc(OCC2CC2)c(-c2ccnc3c(C(=O)NC4CCN(C(=O)CO)CC4)c(C)[nH]c23)cc1F` [Example F50, 7-[2-(Cyclopropylmethoxy)-5-fluoro-4-methoxyphenyl]-N-(1-glycoloylpiperidin-4-yl)-2-methyl-1H-pyrrolo[3,2-b]pyridine-3-carboxamide], the IC50 was < 1 nM. The value for `COc1ccc(-c2ccnc3c(C(=O)N[C@H]4CC[C@@H](NC(=O)[C@H](C)O)CC4)c(C)[nH]c23)c(OCC2CC2)c1` [Example F25, 7-[2-(Cyclopropylmethoxy)-4-methoxyphenyl]-N-(cis-4-{[(2S)-2-hydroxypropanoyl]amino}cyclohexyl)-2-methyl-1H-pyrrolo[3,2-b]pyridine-3-carboxamide] was < 1 nM; that for `Cc1[nH]c2c(-c3ccc(F)cc3OCC3CC3)ccnc2c1C(=O)N[C@H]1CC[C@H](NC(=O)CO)CC1` [Example F08, 7-[2-(Cyclopropylmethoxy)-4-fluorophenyl]-N-{trans-4-[(hydroxyacetyl)amino]cyclohexyl}-2-methyl-1H-pyrrolo[3,2-b]pyridine-3-carboxamide] was 1 to 10 nM; that for `COc1ccc(OCC2CC2)c(-c2ccnc3c(C(=O)N[C@H]4CC[C@H](NC(=O)CO)CC4)c(C)[nH]c23)c1` [Example F28, 7-[2-(Cyclopropylmethoxy)-5-methoxyphenyl]-N-{trans-4-[(hydroxyacetyl)amino]cyclohexyl}-2-methyl-1H-pyrrolo[3,2-b]pyridine-3-carboxamide] was < 1 nM. Under `CCC(=O)N1CCC(NC(=O)c2c(C)[nH]c3c(-c4cc(F)c(OC)cc4OCC4CC4)ccnc23)CC1` [Example E77, 7-[2-(Cyclopropylmethoxy)-5-fluoro-4-methoxyphenyl]-2-methyl-N-(1-propionylpiperidin-4-yl)-1H-pyrrolo[3,2-b]pyridine-3-carboxamide] stands < 1 nM. `COc1ccc(-c2ccnc3c(C(=O)N[C@H]4CC[C@@H](NC(C)=O)CC4)c(C)[nH]c23)c(OCC2CC2)c1` [Example E37, N-[cis-4-(Acetylamino)cyclohexyl]-7-[2-(cyclopropylmethoxy)-4-methoxyphenyl]-2-methyl-1H-pyrrolo[3,2-b]pyridine-3-carboxamide]: the IC50 is < 1 nM. For `CCC(=O)N[C@H]1CC[C@H](NC(=O)c2c(C)[nH]c3c(-c4cc(C)ccc4OCC4CC4)ccnc23)CC1` [Example E56, 7-[2-(Cyclopropylmethoxy)-5-methylphenyl]-2-methyl-N-[trans-4-(propanoylamino)cyclohexyl]-1H-pyrrolo[3,2-b]pyridine-3-carboxamide], the IC50 was 1 to 10 nM.
